The text below walks through data of publication PMC10848080 (CNS Neuroscience & Therapeutics, 2023).

What is called solubility is the concentration that dissolves in the medium under given conditions. Read a high solubility as a readily soluble substance.

Molecules are shown by their SMILES. In brackets after ≈: the same amount, converted by molar mass.

For one data set, the system named is DA in rat striatum. The experiment in a line: Striatal DA content by HPLC-ECD in 6-OHDA-lesioned rats. Type of data set: in vivo. The note with it: 6 weeks, L-dopa vs 6-OHDA, combination vs L-dopa alone in lesioned striatum.
Data set [1] deals with TDC. The experiment in a line: TDC gene expression and specific activity in feces of E. faecalis-transplanted rats. The note with it: 1 week of administration, combination vs L-dopa alone. Type of data set: in vivo, rat. Here is the method:
(§1) Fecal microbial genomic DNA was extracted using the TIANamp Stool DNA Kit (TIANGEN). Plasmids containing the target sequences of E. faecalis 16 S rRNA and TDC were prepared (Figure S1A,B). Then, 10‐fold serial dilutions of plasmid were used as the templates to make the standard curves for absolute quantification. Quantitative PCR (qPCR) experiments were performed on 40 ng DNA in 20 μL reactions, following the amplification program: initial denaturation at 95°C for 15 min, 45 cycles of 95°C for 10 s, 58°C for 31 s, 72°C for 30 s, ended with a final extension at 72°C for 10 min. The absolute E. faecalis 16 S rRNA gene and TDC gene copies in fecal DNA samples were calculated based on the standard curves.
(§2) The rat feces were weighed and suspended in lysis buffer. After centrifugation at 800 g for 10 min, the supernatants were collected and added with lysozyme. The mixtures were centrifuged at 12,000 g for 20 min, and the supernatants were obtained for protein concentration determination and the detection of TDC level in rat feces using rat TDC ELISA kit (MM‐71824R1, MEIMIAN). The results are expressed as U/mg protein.

Data set [2] deals with TDC. The experiment in a line: qPCR quantification of TDC in feces of 6-OHDA-lesioned rats. Type of data set: in vivo, rat. The note with it: PIP dose-dependent, after 3 weeks, vs 6-OHDA. The protocol:
(§3) The damage of rat dopaminergic neurons was assessed by apomorphine (APO, Sigma)‐induced rotation tests at the 5th, 8th, and 11th weeks of experiment.[17] […] The dosages of PIP used in the present study were safe for rats.[21] Rats were treated once a day for 6 weeks. The 6‐OHDA group and sham group were treated with the same volume of substrate solution (0.5% CMC‐Na).
as §1

The next data set concerns 6-OHDA-lesioned rats. The experiment in a line: Open-field test in 6-OHDA-lesioned rats. Type of data set: in vivo, rat. As to conditions: L-dopa 60 mg/kg, PIP 20 mg/kg, once a day for 6 weeks. The protocol:
Adaptively raised for 1 week, SD rats were randomly divided into two groups: the sham‐operated group (n = 6) and the 6‐OHDA‐lesioned group (n = 36). After deep anesthesia, the rats were stereotaxically injected with 3 μL 6‐OHDA (4 mg/mL in 0.02% ascorbic acid saline; Sigma) into the left striatum following our previously described protocol,[17] and the rats in sham group were injected with 3 μL vehicle (0.02% ascorbic acid saline).
as §3
Open‐field test was conducted on the 2nd day after the rotation test. The movements in 5 min of rats in open‐field apparatus (100 × 100 × 40 cm), including total movement distance (cm) and horizontal velocity (cm/s), were recorded by the TruScan Activity Monitoring System (USA). Abnormal involuntary movements (AIMs) were scored according to the rating system described in Lee's study.[22] […] Then, the dyskinesia behaviors of rats, including axial dystonia, reverse rotation, and limb and masticatory dyskinesia, were evaluated during a 1‐min monitoring period, repeated every 20 min for 2 h. […]

Data set [3] deals with E. faecalis. The experiment in a line: qPCR quantification of E. faecalis in feces of 6-OHDA-lesioned rats. The class given is in vivo, rat. As to conditions: PIP 10 and 20 mg/kg after 3 weeks, dose-dependent, combination vs L-dopa after 6 weeks. The protocol:
as §3, §1

Data set [4] has as its system E. faecalis. The experiment in a line: qPCR of E. faecalis in feces of E. faecalis-transplanted rats. Type of data set: in vivo, rat. As to conditions: 1 week of administration, combination vs L-dopa alone. The protocol: as §1
In data set [5] the test system is tyrosine hydroxylase (TH). The experiment in a line: Western blot of tyrosine hydroxylase in lesioned substantia nigra. Type of data set: in vivo, rat. The note with it: 6-OHDA-lesioned rats, 6 weeks. The protocol:
as §3
The left substantia nigra (SN) of rat was lysed using non‐denaturing lysis buffer, and immunoblotting was performed following the reported protocol.[19] Protein homogenates were subjected to Western blot analysis using antibodies against tyrosine hydroxylase (TH, 1:1000, Sigma) and GAPDH (1:2000, Proteintech). The blots were visualized by a NcmECL Ultra Western blot diction kit (NCM Biotech), and densitometry was analyzed by using the Fusion FX Image system (Vilber Lourmat).

Data set [6] is described as follows: Solubility limit of PIP in the TDC enzyme assay. The class given is physicochemical. As to conditions: 37 °C, pH 5.5, aqueous buffer. Here is the method: (§4) TDC (from E. faecalis NCTC6783, Aladdin; 0.02 mg/mL) and PLP (2 mM, Sigma) were pre‐incubated with various concentrations (0.01–250 μM) of PIP in 0.2 M sodium acetate buffer (pH = 5.5) at 37°C for 15 min. […] After 20 min of incubation, the reaction was quenched by diluting 1:10 in methanol containing 0.7% perchloric acid.[25] The mixture was centrifuged at 12,000 g (4°C) for 5 min, and the supernatant was collected for the determination of DA by HPLC‐ECD.

The conditions of data set [7]: PIP 10 and 20 mg/kg, rats; cited from earlier work.
Data set [8] has as its system intestinal bacteria of SD rats. The experiment in a line: L-dopa conversion rate in rat intestinal bacteria (feces) culture in vitro. Type of data set: cell-based. The note with it: 24 h, anaerobic, vs L-dopa alone. Here is the method: (§5) The column was maintained at 40°C.
(§6) The whole blood, colon contents, jejunum, and brain tissues of SD rats (n = 6) were collected. Colonic contents were pooled and suspended in anaerobic medium (Aobox) at a ratio of 1:20 (g/mL), the mixtures were centrifuged at 800 g (4°C) for 10 min, and then collected the supernatant for culture. Tissues were pooled and weighed, then homogenized with 5 mM phosphate buffer (pH = 7.4) at the ratio of 1:5 (g/ml). […] The intestinal bacterial cultures were incubated in an anaerobic chamber, while tissues or blood incubation systems were incubated at 37°C for 12 and 24 h, and then the incubation was terminated with three‐fold acetonitrile. After centrifugation at 12,000 g for 10 min, the supernatants were collected for HPLC‐FLD analysis.

On the set-up of data set [9]: method as in PMID 23603295. The note with it: previous studies; cited from earlier work.
Data set [10] relates to TDC mRNA in E. faecalis ATCC29212. The experiment in a line: RT-qPCR of TDC gene expression in E. faecalis ATCC29212. Type of data set: cell-based, Enterococcus faecalis. As to conditions: PIP 10 or 20 μg/mL, 24 h. The protocol:
(§7) The growth control group and negative control group were set. The cultures were incubated at 37°C under an anaerobic environment. The 1 mL of incubation sample and twofold cold acetonitrile were added to terminate the incubation. After centrifugation at 12,000 g for 10 min, the supernatants were collected for HPLC‐FLD analysis.
Total RNA was extracted from the culture pellets generated in the experiment described above “Incubation of E. faecalis in vitro” using the RNAprep Pure Cell/Bacteria Kit (TIANGEN). A FastQuant RT Kit (with gDNase) (TIANGEN) was used to transcribe RNA to cDNA. After that, RT–qPCR was conducted using 2 × SuperReal PreMix Plus (TIANGEN) and performed on the CFX Connect™ Real‐Time System (Bio–Rad) following the amplification program: 95°C for 15 min, followed by 40 cycles of 95°C for 10 s, 52°C for 31 s, and 72°C for 30 s. The program ended with a final extension at 72°C for 10 min. The relative gene expression was calculated using the 2^−^ΔΔ^Ct method.

The next data set has as its system E. faecalis ATCC29212. The experiment in a line: L-dopa conversion rate in E. faecalis ATCC29212 culture. Type of data set: cell-based, Enterococcus faecalis. The note with it: 24 h, anaerobic, vs L-dopa alone. The protocol:
as §5, §7

Data set [11] addresses T1, TDC (from E. faecalis NCTC6783) (Enterococcus faecalis, UniProt P0DTQ4).
T1 construct: purchased Aladdin
T1 sequence (P0DTQ4 1-620): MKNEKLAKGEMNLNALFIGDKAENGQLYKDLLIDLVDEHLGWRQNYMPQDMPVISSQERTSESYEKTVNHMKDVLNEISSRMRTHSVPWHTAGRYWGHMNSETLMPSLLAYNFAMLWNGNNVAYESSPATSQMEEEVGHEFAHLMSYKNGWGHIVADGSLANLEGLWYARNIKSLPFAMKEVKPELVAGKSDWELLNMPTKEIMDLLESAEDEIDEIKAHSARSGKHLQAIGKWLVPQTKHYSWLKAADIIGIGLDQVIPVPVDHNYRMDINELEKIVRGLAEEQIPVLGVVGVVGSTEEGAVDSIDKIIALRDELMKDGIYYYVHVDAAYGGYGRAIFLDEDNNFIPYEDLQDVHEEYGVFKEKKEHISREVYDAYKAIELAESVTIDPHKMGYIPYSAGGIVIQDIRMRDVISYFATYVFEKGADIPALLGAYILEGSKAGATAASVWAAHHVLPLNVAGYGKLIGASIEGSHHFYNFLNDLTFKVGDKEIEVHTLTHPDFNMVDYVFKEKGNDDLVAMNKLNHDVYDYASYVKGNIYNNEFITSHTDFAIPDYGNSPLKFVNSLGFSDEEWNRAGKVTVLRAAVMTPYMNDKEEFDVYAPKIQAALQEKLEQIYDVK
The experiment in a line: TDC enzyme assay (DA produced from L-dopa). The class given is biochemical. The note with it: 250 μM PIP, L-dopa 0.3 mM, pH 5.5, relative to solvent control. The protocol: as §4

In a further data set the test system is MAO. Further details: method as in PMID 32099971. As to conditions: reported; cited from earlier work.
Data set [12] can be described thus: L-dopa conversion rate in rat whole blood and tissue homogenates in vitro. Type of data set: in vitro ADME. The note with it: L-dopa 0.3 mM + PIP 10 or 20 μg/mL, 12 and 24 h, vs L-dopa alone. Here is the method: as §5, §6
Data set [13] relates to TDC. The experiment in a line: ELISA of TDC specific activity in feces of 6-OHDA-lesioned rats. The class given is in vivo, rat. As to conditions: 6-OHDA-lesioned rats after 6 weeks of administration; combination vs L-dopa alone. Here is the method:
as §2
(In general: ELISA stands for enzyme-linked immunosorbent assay.)

In a further data set the test system is TDC in E. faecalis. The experiment in a line: ELISA of TDC specific activity in E. faecalis ATCC29212. The class given is cell-based, Enterococcus faecalis. As to conditions: PIP 10 or 20 μg/mL, 24 h. Here is the method: as §7
The bacterial protein was extracted from the culture pellets generated as described above. After being washed with PBS three times, the bacterial pellets were re‐suspended in 400 μL PBS containing 2% ethanol and incubated in ice bath for 30 min. After centrifugation at 1000 g for 10 min, the sediments were collected and lysed using lysis buffer containing 100 μg/mL lysozyme, then centrifuged at 12,000 g for 20 min to collect the supernatants. After determining the protein concentration using the BCA kit (Beyotime), the assay of TDC level in E. faecalis was performed according to the Microorganism TDC Elisa kit (MM‐925239O2, MEIMIAN) guideline. Briefly, the extracted protein samples were added to the coated wells together with the balance solution and HRP conjugate reagent, then incubated at 37°C. […] After adding the stop solution to each well, the optical density was measured at the wavelength of 450 nm. The specific activity of TDC was calculated based on the standard curve. The results are expressed as U/mg protein.

Take `N[C@@H](Cc1ccc(O)c(O)c1)C(=O)O` [L‐dopa, Levodopa]: the “DA level in striatum (HPLC-ECD)” value in the data set with DA in rat striatum was “significantly increased”. In addition, the “expression of TDC in feces” value in the data set on TDC [1] was “upregulation”. In addition, the “expression of TDC in feces (qPCR)” value in the data set with TDC [2] is “further increased”. Moreover, in the data set on 6-OHDA-lesioned rats, the “movement speed in open field” value is “alleviate the bradykinesia” and the “total movement distance in open field” value is listed as “alleviate the bradykinesia”. In addition, the “abundance of E. faecalis in feces (qPCR)” value with E. faecalis [3] was “did not show a notable effect”. In addition, the “abundance of E. faecalis in feces” value with E. faecalis [4] was “no significant effect”.
Regarding `O=C(/C=C/C=C/c1ccc2c(c1)OCO2)N1CCCCC1` [PIP, piperine], in data set [5], the “lesions of dopaminergic neurons (TH protein level in SN)” value is given as “efficiently attenuate the lesions”. In data set [6], this molecule had a solubility of 250 µM (≈ 71.3 µg/mL). Also, the “safety of the dosages used” value in data set [7] is “safe”. Besides, the “decrease of conversion rate (CR) of L-dopa” value was determined as 17.02% in data set [8] (PIP 10 μg/mL + L-dopa 0.3 mM) and 27.55% in [8] (PIP 20 μg/mL + L-dopa 0.3 mM). The “crossing of the blood-brain barrier” value in data set [9] is recorded as “can cross”. For the same molecule, in data set [9], the tissue distribution result was “wide tissue distribution”. Also, the “expression of TDC in feces (qPCR)” value in the data set on TDC [2] is reported as “significantly suppressive effect”. The “gene expression of TDC in E. faecalis” value in data set [10] is recorded as “reduced”. Besides, the entries for the “decrease of CR of L-dopa” value in the data set on E. faecalis ATCC29212 (PIP 10 μg/mL + L-dopa 0.3 mM) and with E. faecalis ATCC29212 (PIP 20 μg/mL + L-dopa 0.3 mM) were 17.22% and 32.01%, respectively. In addition, in data set [11], the “decrease in TDC activity” value is listed as 20.95%. In addition, in the data set with E. faecalis [3], the “abundance of E. faecalis in feces (qPCR)” value was “significantly reduce”. Besides, the MAO inhibition result in the data set on MAO is reported as “potential to inhibit MAO activity”. Moreover, the “CR of L-dopa in brain homogenate” value in [12] (rat brain homogenate) is reported as “no significant difference”. Besides, in data set [12] (rat small intestine homogenate), the “CR of L-dopa in small intestine homogenate” value was “no significant difference”. For the same molecule, the “CR of L-dopa in blood” value in data set [12] (rat whole blood) was “no significant difference”. The “specific activity of TDC in feces (ELISA)” value with TDC [13] is reported as “significantly decrease”. The “specific activity of TDC in E. faecalis” value in the data set on TDC in E. faecalis was “reduced”.
